Blank lines part the entries; values can stand above or below the compound they belong to.
How the values were obtained:
HepG2 cells = test: MTS cell proliferation assay, HepG2; type: cell-based, human; settings: MTS
Description: (§1) Cell viability was determined by using the MTS assay. In brief, HepG2 cells (5×10^3 cells/100 µL/well), MDA-MB-231 (5×10^3 cells/100 µL/well), THP-1 (25×10^3/100 µL/well), normal human and rat hepatocytes (1×10^4 cells/100 µL/well) were plated in triplicate, in a 96 well sterile flat bottom tissue culture plates. […] Thereby, cells were exposed to various concentrations (0.1, 1, 10, 25, 50, 75, 100 µM) of each treatment. Controls consist of cells with media containing DMSO (<0.5%), test blank wells contained the test compound in media with no cells and blank wells contained media with no cells. After additional 3, 6, 12, 18 or 24 h, 20 µL of the MTS reagent in combination with the electron coupling agent, phenazine methosulfate were added to the wells and cells were incubated in a humidified incubator for 3 h. Absorbance at 490 nm (OD490) was measured by using a Flurostar Optima microplate reader (BMG Labtech, Cary, NC, USA) to obtain the number of viable cells relative to the control population. Percentage of viability of the test compound treated cells are expressed as percentage compared to control (<0.5% DMSO). […] The selective index (SI) of the fatty acid esters of phloridzin is defined as the ratio of cytotoxicity (EC50 values) on normal HP-F cells to solid cancer HepG2, MDA-MB-231 cells (SI = EC50 on HP-F cells/EC50 on solid cancer cells). Samples with SI values greater than three were considered to have high selectivity towards cancer cells.

MDA-MB-231 cells = test: MTS cell proliferation assay, MDA-MB-231; type: cell-based, human; settings: MTS
Description: as §1

THP-1 cells = test: MTS cell proliferation assay, THP-1; type: cell-based, human; settings: MTS
Description: as §1

[1] = system: normal human hepatocytes (HP-F); test: MTS cell viability assay, normal human hepatocytes; type: cell-based; settings: 24 h
Description: as §1

SMILES: CC/C=C\C/C=C\C/C=C\CCCCCCCC(=O)O [α-Linolenic acid, α-linolenic acid]
EC50 (HepG2 cells; HepG2, 3 h): > 100 µM | EC50 (HepG2 cells; HepG2, 6 h): > 100 µM | EC50 (HepG2 cells; HepG2, 12 h): > 100 µM | EC50 (HepG2 cells; HepG2, 18 h): > 100 µM | EC50 (HepG2 cells; HepG2, 24 h): > 100 µM | EC50 (MDA-MB-231 cells; MDA-MB-231, 3 h): > 100 µM | EC50 (MDA-MB-231 cells; MDA-MB-231, 6 h): > 100 µM | EC50 (MDA-MB-231 cells; MDA-MB-231, 12 h): > 100 µM | EC50 (MDA-MB-231 cells; MDA-MB-231, 18 h): > 100 µM | EC50 (MDA-MB-231 cells; MDA-MB-231, 24 h): > 100 µM | EC50 (THP-1 cells; THP-1, 3 h): > 100 µM | EC50 (THP-1 cells; THP-1, 6 h): > 100 µM | EC50 (THP-1 cells; THP-1, 12 h): > 100 µM | EC50 (THP-1 cells; THP-1, 18 h): > 100 µM | EC50 (THP-1 cells; THP-1, 24 h): > 100 µM | EC50 [1]: > 100 µM

EC50 (HepG2 cells; Homo sapiens, HepG2, 3 h): > 100 µM | EC50 (HepG2 cells; Homo sapiens, HepG2, 6 h): > 100 µM | EC50 (HepG2 cells; Homo sapiens, HepG2, 12 h): > 100 µM | EC50 (HepG2 cells; Homo sapiens, HepG2, 18 h): > 100 µM | EC50 (HepG2 cells; Homo sapiens, HepG2, 24 h): > 100 µM | EC50 (MDA-MB-231 cells; Homo sapiens, MDA-MB-231, 3 h): > 100 µM | EC50 (MDA-MB-231 cells; Homo sapiens, MDA-MB-231, 6 h): > 100 µM | EC50 (MDA-MB-231 cells; Homo sapiens, MDA-MB-231, 12 h): > 100 µM | EC50 (MDA-MB-231 cells; Homo sapiens, MDA-MB-231, 18 h): > 100 µM | EC50 (MDA-MB-231 cells; Homo sapiens, MDA-MB-231, 24 h): > 100 µM | EC50 (THP-1 cells; Homo sapiens, THP-1, 3 h): > 100 µM | EC50 (THP-1 cells; Homo sapiens, THP-1, 6 h): > 100 µM | EC50 (THP-1 cells; Homo sapiens, THP-1, 12 h): > 100 µM | EC50 (THP-1 cells; Homo sapiens, THP-1, 18 h): > 100 µM | EC50 (THP-1 cells; Homo sapiens, THP-1, 24 h): > 100 µM
SMILES: CCCCCCCCCCCCCCCCCC(=O)O [Stearic acid, stearic acid]
EC50 ([1]; Hepatocyte): > 100 µM

Reference: article PMC4167698, “Fatty Acid Esters of Phloridzin Induce Apoptosis of Human Liver Cancer Cells through Altered Gene Expression” (PLoS ONE, 2014)
